Results as given in article PMC2362650, “Phase I and pharmacokinetic study of the topoisomerase II catalytic inhibitor fostriecin” (British Journal of Cancer, 1999).
Read-outs that look alike come from different tables or passages of the source.

Test: Plasma and urine pharmacokinetics (HPLC-UV) in patients after 60-min IV infusion
Format: in vivo, human
Conditions: human; for Cmax / AUC / MRT / half-life: plasma, intravenous, day 1 course 1; for Cmax: observed value; for MRT: read-out: MRT
From the text: Fostriecin (CI-920) is a topoisomerase (topo) II catalytic activity inhibitor (Boritzki et al, 1988) (Figure 1). This novel class of topo II-targeting drugs is considered of potential value for treatment of patients with tumours resistant to classic topo II poisons, including anthracyclines and podophyllotoxins (Cummings and Smyth, 1993). The nuclear enzyme topo II is essential for the regulation of DNA conformation (reviewed in Osheroff et al, 1991). Central in its action is the formation of a complex with DNA. Stabilization of this complex by topo II poisons induces DNA damage and cell death (Froelich-Ammon and Osheroff, 1995). Decreased complex formation due to decreased topo II levels is considered to be an important mechanism of tumour-resistance to topo II poisons (Beck and Danks, 1991). The topo II catalytic inhibitor fostriecin is expected to have increased activity against tumour cells with low topo II levels and this was confirmed in in vitro studies (De Jong et al, 1991). […] Because of increased toxi- city of fostriecin in dogs compared to mice, a dose below one-third of the one-tenth mouse equivalent LD10, 2 mg m-2 day-1, was chosen as starting dose in humans (Clinical Brochure Fostriecin, 1991). […] We also performed an analysis of the human pharmacokinetics of fostriecin and ex vivo experiments to investigate if the plasma drug concentrations achieved were sufficient to inhibit a tenipo- side-resistant tumour cell line. The maximum tolerated dose (MTD) of fostriecin could not be established because drug supply was stopped prematurely. However, results of this study may provide a basis for continued clinical development of this agent. PATIENTS AND METHODS Patient selection, drug administration and evaluation Patient eligibility criteria were: histologically confirmed diagnosis of a solid tumour, no longer amenable to established forms of treatment; age 18-75 years; Eastern Cooperative Oncology Group (ECOG) performance status 2; life expectancy 12 weeks; no Phase I and pharmacokinetic study of the topoisomerase II catalytic inhibitor fostriecin RS de Jong1, NH Mulder1, DRA Uges2, DTh Sleijfer1, FJP Hoppener4, HJM Groen3, PHB Willemse1, WTA van der Graaf1 and EGE de Vries1 Departments of 1Medical Oncology, 2Pharmacy and Toxicology, and 3Pulmonary Diseases, University Hospital Groningen, The Netherlands; 4EORTC New Drug Development Office, Amsterdam, The Netherlands Summary We conducted a phase I and pharmacokinetic study of the topoisomerase II catalytic inhibitor fostriecin. Fostriecin was administered intravenously over 60 min on days 1-5 at 4-week intervals. Dose was escalated from 2 mg m-2 day-1 to 20 mg m-2 day-1 in 20 patients. Drug pharmacokinetics was analysed with high performance liquid chromatography with UV-detection. Plasma collected during drug administration was tested in vitro for growth inhibition of a teniposide-resistant small-cell lung cancer (SCLC) cell line. The predominant toxicities were elevated liver transaminases (maximum common toxicity criteria (CTC) grade 4) and serum creatinine (maximum CTC grade 2). […] Duration of elevated alanine-amino transferase (ALT) was dose-limiting in one patient at 20 mg m-2. Other frequent toxicities were grade 1-2 nausea/vomiting, fever and mild fatigue. […] A metabolite, most probably dephosphorylated fostriecin, was detected in plasma and urine. […] However, further escalation seems possible and is warranted to achieve potentially effective drug levels. Fostriecin has a short plasma half-life and longer duration of infusion should be considered. […]

[1] = 2 mg, patient no. 1, 2 mg m-2, one-compartment model
[2] = 2 mg, patient no. 3, 2 mg m-2, one-compartment model
[3] = 2 mg, patient no. 4, 2 mg m-2, one-compartment model
[4] = 4 mg, patient no. 5, 4 mg m-2, one-compartment model
[5] = 4 mg, patient no. 6, 4 mg m-2, one-compartment model
[6] = 4 mg, patient no. 7, 4 mg m-2, two-compartment model
[7] = 6.6 mg, patient no. 11, 6.6 mg m-2, two-compartment model
[8] = 6.6 mg, patient no. 12, 6.6 mg m-2, two-compartment model
[9] = 10 mg, patient no. 13, 10 mg m-2, two-compartment model
[10] = 10 mg, patient no. 15, 10 mg m-2, two-compartment model
[11] = 12.2 mg, patient no. 16, 12.2 mg m-2, two-compartment model

Q: With C[C@@](O)(/C=C/[C@H]1CC=CC(=O)O1)[C@@H](C[C@@H](O)\C=C/C=C\C=C\CO)OP(=O)(O)O [fostriecin] as the compound, how does the “number of patients with fostriecin detectable in plasma more than 7 h after infusion” value (in vivo) read?
A: one

Q: What about the Cmax (2 mg, patient no. 1, 2 mg m-2) of the same compound?
A: 495 ng/mL

Q: And the AUC [1]?
A: 739 ng·h/mL

Q: What about the MRT [1] of the same compound?
A: 51.6 min

Q: And the half-life (2 mg, patient no. 1, 2 mg m-2, one-compartment model, read-out: t1/2 (converted))?
A: 36 min

Q: And the Cmax (2 mg, patient no. 3, 2 mg m-2)?
A: 597 ng/mL

Q: What about the AUC [2] of the same compound?
A: 810 ng·h/mL

Q: And the MRT [2]?
A: 46.2 min

Q: What about the half-life (2 mg, patient no. 3, 2 mg m-2, one-compartment model, read-out: t1/2 (converted)) of the same compound?
A: 32.4 min

Q: What about the Cmax (2 mg, patient no. 4, 2 mg m-2) of the same compound?
A: 371 ng/mL

Q: And the AUC [3]?
A: 468 ng·h/mL

Q: What about the MRT [3] of the same compound?
A: 30.6 min

Q: And the half-life (2 mg, patient no. 4, 2 mg m-2, one-compartment model, read-out: t1/2 (converted))?
A: 21 min

Q: And the Cmax (4 mg, patient no. 5, 4 mg m-2)?
A: 1160 ng/mL

Q: And the AUC [4]?
A: 1360 ng·h/mL

Q: And the MRT [4]?
A: 43.2 min

Q: What about the half-life (4 mg, patient no. 5, 4 mg m-2, one-compartment model, read-out: t1/2 (converted)) of the same compound?
A: 30 min

Q: What about the Cmax (4 mg, patient no. 6, 4 mg m-2) of the same compound?
A: 956 ng/mL

Q: And the AUC [5]?
A: 1170 ng·h/mL

Q: What about the MRT [5] of the same compound?
A: 40.2 min

Q: And the half-life (4 mg, patient no. 6, 4 mg m-2, one-compartment model, read-out: t1/2 (converted))?
A: 27.6 min

Q: And the Cmax (4 mg, patient no. 7, 4 mg m-2)?
A: 940 ng/mL

Q: What about the AUC [6] of the same compound?
A: 1490 ng·h/mL

Q: What about the MRT [6] of the same compound?
A: 116 min

Q: What about the half-life (4 mg, patient no. 7, 4 mg m-2, two-compartment model, read-out: t1/2 (initial) (converted)) of the same compound?
A: 15.6 min

Q: What about the half-life (4 mg, patient no. 7, 4 mg m-2, two-compartment model, read-out: t1/2 (terminal) (converted)) of the same compound?
A: 122 min

Q: And the Cmax (6.6 mg, patient no. 11, 6.6 mg m-2)?
A: 1400 ng/mL

Q: What about the AUC [7] of the same compound?
A: 1650 ng·h/mL

Q: What about the MRT [7] of the same compound?
A: 26.4 min

Q: What about the half-life (6.6 mg, patient no. 11, 6.6 mg m-2, two-compartment model, read-out: t1/2 (initial) (converted)) of the same compound?
A: 5.4 min

Q: What about the half-life (6.6 mg, patient no. 11, 6.6 mg m-2, two-compartment model, read-out: t1/2 (terminal) (converted)) of the same compound?
A: 28.2 min

Q: What about the Cmax (6.6 mg, patient no. 12, 6.6 mg m-2) of the same compound?
A: 1860 ng/mL

Q: And the AUC [8]?
A: 2450 ng·h/mL

Q: And the MRT [8]?
A: 37.8 min

Q: What about the half-life (6.6 mg, patient no. 12, 6.6 mg m-2, two-compartment model, read-out: t1/2 (initial) (converted)) of the same compound?
A: 15 min

Q: And the half-life (6.6 mg, patient no. 12, 6.6 mg m-2, two-compartment model, read-out: t1/2 (terminal) (converted))?
A: 73.2 min

Q: What about the Cmax (10 mg, patient no. 13, 10 mg m-2) of the same compound?
A: 2240 ng/mL

Q: What about the AUC [9] of the same compound?
A: 3350 ng·h/mL

Q: And the MRT [9]?
A: 55.2 min

Q: What about the half-life (10 mg, patient no. 13, 10 mg m-2, two-compartment model, read-out: t1/2 (initial) (converted)) of the same compound?
A: 100 min

Q: And the half-life (10 mg, patient no. 13, 10 mg m-2, two-compartment model, read-out: t1/2 (terminal) (converted))?
A: 55.8 min

Q: What about the Cmax (10 mg, patient no. 15, 10 mg m-2) of the same compound?
A: 2450 ng/mL

Q: What about the AUC [10] of the same compound?
A: 3770 ng·h/mL

Q: What about the MRT [10] of the same compound?
A: 60.6 min

Q: And the half-life (10 mg, patient no. 15, 10 mg m-2, two-compartment model, read-out: t1/2 (initial) (converted))?
A: 18 min

Q: What about the half-life (10 mg, patient no. 15, 10 mg m-2, two-compartment model, read-out: t1/2 (terminal) (converted)) of the same compound?
A: 83.4 min

Q: What about the Cmax (12.2 mg, patient no. 16, 12.2 mg m-2) of the same compound?
A: 3200 ng/mL

Q: And the AUC [11]?
A: 4230 ng·h/mL

Q: And the MRT [11]?
A: 56.4 min

Q: And the half-life (12.2 mg, patient no. 16, 12.2 mg m-2, two-compartment model, read-out: t1/2 (initial) (converted))?
A: 13.2 min
